Test results: patent publication US8877819B2, “Methods for treating heat stress and related compositions” (Georgetown University, priority 2008, dated 2014)

Columns and labels:
Zucker Fatty Rats (ZFR) [1] = test: Blood pressure and cardiac rate by tail plethysmography; format: in vivo; details: for SBP over the last month vs control / SBP after heat stress: Experiment 1; for SBP after heat stress: survivors, 12 days after heat stress; for DBP / SBP / Cardiac rate: 60 days; for Cardiac rate: in beats/min (unit assumed)
Procedure: For two experiments, a total of 96 Zucker Fatty Rats (ZFR) (Charles River, Wilmington, Mass.) were used: 48 in each experiment were divided into four groups of 12 rats. Initial body weights ranged between 434 and 624 g in the first experiment and between 388 and 520 g in the second. All rats consumed a regular rat diet in crushed form (Purina Rat Chow, Ralston Purina, St. Louis, Mo.). Sucrose was added to the pulverized regular rat chow (30%, w/w). The four groups comprised a control eating the described diet and three test groups eating the same diet but with the addition of captopril or astaxanthin (two different doses). […] The amount of astaxanthin added was based on 2% (w/w) content of astaxanthin to powder. The first study continued for 57 days while the second continued for 75 days. SBP was measured by tail plethysmography using two different instruments. As in many previous studies, an instrument from Narco Biosciences (Houston, Tex.) was used. This allowed for rapid measurement SBP with a beeper sound system. The second reading was performed on an instrument obtained from Kent Scientific Corporation (Torrington, Conn.). The latter is a computerized, non-invasive tail cuff acquisition system that utilizes a specially-designed differential pressure transducer to non-invasively measure the blood volume in the tail. This instrument not only records SBP, but also provides measurements of mean blood pressure (MBP), diastolic blood pressure (DBP), and cardiac rate. The two instruments were used interchangeably. Previous experience has shown that the SBP readings were virtually the same by either instrument. Rats were allowed free access to their diet and water until SBP readings were obtained between 13.00 h and 17.00 h after a slight warming. Multiple readings on individual rats were taken. To be accepted, SBP measurements on a given rat had to be stable (consistently within 5 mm Hg).

TNF-α = test: Cytokine assay (ELISA), TNF-α; format: in vivo, Zucker Fatty Rats; details: Experiment 2
Procedure: (§1) Various cytokines were measured by ELISA methodology using kits from the following sources: rat MCP-1—Assay Designs Inc., Ann Arbor, Mich.; rat adiponectin—ALPCO Diagnostics, Salem, N.H.; TNF-a, ALPCO Diagnostics, Salem, N.H.; RAT IL-1B—Assay Designs Inc, Ann Arbor, Mich.; RAT IL-6—ALPCO Diagnostics, Salem, N.H.

MCP-1 = test: Cytokine assay (ELISA), MCP-1; format: in vivo, Zucker Fatty Rats; details: Experiment 2
Procedure: as §1

angiotensin-2 = test: Serum angiotensin-2 levels (radioimmunoassay); format: in vivo, Zucker Fatty Rats
Procedure: Serum angiotensin-2 was trapped by octylminicolumns (Amprep-C8, 500 mg, Amersham, Buckingshire, UK). Each minicolumn was prewashed with 5 mL of 100% methanol and then with 10 mL of 0.1% trifluoroacetic acid (TFA) in distilled water. After the serum was passed through the minicolumn, it was washed with 0.1% TFA again. […] Samples were collected and dried in a vacuum centrifuge and dissolved in 0.1M Tris-acetate buffer (pH 7.4) containing 2.6 mM disodium salt of ethylenediaminetetra-acetic acid (EDTA), 1 mM phenylmethylsulphonyl fluoride, and 0.1% bovine serum albumin.
Angiotensin-2 was measured by radioimmunoassay using an angiotensin-2 antibody (Peninsula Laboratories Inc., Belmont, Calif.). The sensitivity of the assay is 1.0 pg/tube. The 500-fold diluted angiotensin-2 antibody (100 μL) was added to the sample (400 μL) and standard tubes that were incubated 24 hours at 4° C.

RAS = test: Losartan challenge (decrease in SBP to estimate activity of the RAS); format: in vivo, Zucker Fatty Rats; details: losartan 40 mg/kg orally
From the text: Three and six hours after lavage, SBP was remeasured. The decreased SBP after losartan was used to estimate activity of the RAS.

IL-1B = test: Cytokine assay (ELISA), IL-1B; format: in vivo, Zucker Fatty Rats; details: Experiment 2
Procedure: as §1

Blood chemistries = format: in vivo, Zucker Fatty Rats; details: Experiment 2; for ALP (alkaline phosphatase) / ALT (alanine aminotransferase) / AST (aspartate aminotransferase) / BUN / CO2 / Calcium / Chloride / Cholesterol / Creatinine / Glucose / Potassium / Sodium / Triglycerides: blood at end of study
From the text: Blood for chemical analysis was obtained at the end of the study following removal of food four hours earlier. Blood chemistry values were obtained via dry chemistry procedures using a Johnson and Johnson (Langhorne, Pa.) Vitros® 250 instrument.

IL-6 = test: Cytokine assay (ELISA), IL-6; format: in vivo, Zucker Fatty Rats; details: Experiment 2
Procedure: as §1

adiponectin = test: Cytokine assay (ELISA), adiponectin; format: in vivo, Zucker Fatty Rats; details: Experiment 2
Procedure: as §1

Zucker Fatty Rats (ZFR) [2] = test: Intraperitoneal Glucose Tolerance Test (ipGTT); format: in vivo; details: Experiment 2; for insulin concentration one hour after the glucose challenge: glucose 2.5 g/kg i.p.; for Baseline insulin concentration / average baseline glucose level: ipGTT baseline
Procedure: During the ipGTT, glucose (2.5 g/kg BW) was injected intraperitoneally (i.p.) to challenge the tolerance to glucose. Drops of blood were obtained from the tail at 0, 30, 60, 120, 180 and 240 minutes post injection. Glucose was estimated using commercial glucose strips (Lifescan, One Touch Ultra, […], Calif.).

[3] = Hi Asta, astaxanthin 25 mg/kg in feed
[4] = Lo Asta, astaxanthin 5 mg/kg in feed
[5] = Experiment 2, Hi Asta, astaxanthin 25 mg/kg in feed
[6] = Experiment 2, Lo Asta, astaxanthin 5 mg/kg in feed

Compound: CC1=C(/C=C/C(C)=C/C=C/C(C)=C/C=C/C=C(C)/C=C/C=C(C)/C=C/C2=C(C)C(=O)[C@@H](O)CC2(C)C)C(C)(C)C[C@H](O)C1=O [Asta, astaxanthin]
- SBP over the last month vs control (Zucker Fatty Rats (ZFR) [1]; [3]): significantly lower SBP
- SBP over the last month vs control (Zucker Fatty Rats (ZFR) [1]; [4]): tendency for the SBP to be lower
- SBP after heat stress (Zucker Fatty Rats (ZFR) [1]; [3]): 133.5 ± 1.5 mm Hg
- SBP after heat stress (Zucker Fatty Rats (ZFR) [1]; [4]): 140.0 ± 2.0 mm Hg
- DBP (Zucker Fatty Rats (ZFR) [1]; [5]): 102.0 ± 2.0 mm Hg
- SBP (Zucker Fatty Rats (ZFR) [1]; [5]): 132.0 ± 1.8 mm Hg
- Cardiac rate (Zucker Fatty Rats (ZFR) [1]; [5]): 401.0 ± 10.6
- DBP (Zucker Fatty Rats (ZFR) [1]; [6]): 108.0 ± 2.1 mm Hg
- SBP (Zucker Fatty Rats (ZFR) [1]; [6]): 134.0 ± 1.6 mm Hg
- Cardiac rate (Zucker Fatty Rats (ZFR) [1]; [6]): 387.0 ± 8.6
- SBP at the end of study (75 days) vs Lo Asta group (Zucker Fatty Rats (ZFR) [1]; [5]): significantly lower than in the Lo Asta group
- average SBP vs control from 40 days to end of study (Zucker Fatty Rats (ZFR) [1]; [5]): significantly lower than control
- average SBP vs control from 40 days to end of study (Zucker Fatty Rats (ZFR) [1]; [6]): significantly lower than control
- TNF-α (TNF-α; [3]): 294.0 ± 13.0
- TNF-α (TNF-α; [4]): 349.0 ± 11.9
- MCP-1 (MCP-1; [3]): 96.0 ± 4.1
- MCP-1 (MCP-1; [4]): 110.0 ± 5.2
- Angio 2 (angiotensin-2; [5]): 177.0 ± 5.2 pg/mL
- Angio 2 (angiotensin-2; [6]): 197.0 ± 7.2 pg/mL
- Losartan: decrease in SBP after losartan challenge (RAS; Experiment 1, survivors after heat stress, Hi Asta, astaxanthin 25 mg/kg in feed): 28.0 ± 2.5
- Losartan: decrease in SBP after losartan challenge (RAS; Experiment 1, survivors after heat stress, Lo Asta, astaxanthin 5 mg/kg in feed): 38.0 ± 3.2
- Losartan: decrease in SBP after losartan challenge (RAS; [5]): 27.5 ± 1.3 mm Hg
- Losartan: decrease in SBP after losartan challenge (RAS; [6]): 33.8 ± 2.8 mm Hg
- IL-1β (IL-1B; [3]): 440.0 ± 25.5
- IL-1β (IL-1B; [4]): 490.0 ± 21.7
- renal damage (elevations in BUN and creatinine concentrations) (Blood chemistries; [3]): none of the ZFR in the Hi Asta group showed any evidence of elevations
- renal damage (increased circulating urea, creatinine and potassium) (Blood chemistries; [4]): evidence of renal damage occurred in three ZFR
- ALP (alkaline phosphatase) (Blood chemistries; [3]): 331 ± 27.3 U/L
- ALT (alanine aminotransferase) (Blood chemistries; [3]): 86.2 ± 13.7 units
- AST (aspartate aminotransferase) (Blood chemistries; [3]): 106.1 ± 21.0 units
- BUN (Blood chemistries; [3]): 15.0 ± 0.5 mg/dL
- CO2 (Blood chemistries; [3]): 23.5 ± 0.5 mM
- Calcium (Blood chemistries; [3]): 11.4 ± 0.1 mg/dL
- Chloride (Blood chemistries; [3]): 98.9 ± 0.8 mM
- Cholesterol (Blood chemistries; [3]): 314.0 ± 13.6 mg/dL
- Creatinine (Blood chemistries; [3]): 0.5 ± 0.01 mg/dL
- Glucose (Blood chemistries; [3]): 327.0 ± 14.2 mg/dL
- Potassium (Blood chemistries; [3]): 6 ± 0.13 mM
- Sodium (Blood chemistries; [3]): 142 ± 0.8 mM
- Triglycerides (Blood chemistries; [3]): 1172.0 ± 51.2 mg/dL
- ALP (alkaline phosphatase) (Blood chemistries; [4]): 364 ± 33.4 U/L
- ALT (alanine aminotransferase) (Blood chemistries; [4]): 70.9 ± 12.4 units
- AST (aspartate aminotransferase) (Blood chemistries; [4]): 105.8 ± 20.9 units
- BUN (Blood chemistries; [4]): 25.3 ± 5.4 mg/dL
- CO2 (Blood chemistries; [4]): 22.5 ± 1 mM
- Calcium (Blood chemistries; [4]): 11.3 ± 0.2 mg/dL
- Chloride (Blood chemistries; [4]): 98.4 ± 0.7 mM
- Cholesterol (Blood chemistries; [4]): 308.0 ± 27.8 mg/dL
- Creatinine (Blood chemistries; [4]): 0.6 ± 0.90 mg/dL
- Glucose (Blood chemistries; [4]): 317.0 ± 30.6 mg/dL
- Potassium (Blood chemistries; [4]): 6.5 ± 0.04 mM
- Sodium (Blood chemistries; [4]): 141 ± 0.7 mM
- Triglycerides (Blood chemistries; [4]): 1167.0 ± 71.6 mg/dL
- IL-6 (IL-6; [3]): 433.0 ± 9.3
- IL-6 (IL-6; [4]): 470.0 ± 21^
- Adiponectin (adiponectin; [3]): 4.03 ± 0.40
- Adiponectin (adiponectin; [4]): 4.11 ± 0.27
- insulin concentration one hour after the glucose challenge (Zucker Fatty Rats (ZFR) [2]; [3]): 2.23 ng/mL
- insulin concentration one hour after the glucose challenge (Zucker Fatty Rats (ZFR) [2]; [4]): 2.15 ng/mL
- Baseline insulin concentration (Zucker Fatty Rats (ZFR) [2]; [3]): 0.90 ng/mL
- average baseline glucose level (Zucker Fatty Rats (ZFR) [2]; [3]): 406 mg/dL
- Baseline insulin concentration (Zucker Fatty Rats (ZFR) [2]; [4]): 0.80 ng/mL
- average baseline glucose level (Zucker Fatty Rats (ZFR) [2]; [4]): 346 mg/dL
- area under the curve after glucose challenge vs control (Zucker Fatty Rats (ZFR) [2]; six rats per group, Hi Asta, astaxanthin 25 mg/kg in feed): statistically significant lower average reading than control
